From patent publication US7519519B1, “Signature projection score” (Entelos, Inc., priority 2002, dated 2009)
Read-outs that look alike come from different tables or passages of the source. Marks after values point to notes of the source that are not given here.

Legend:
[1] = system: Leukocyte Depletion Signature; test: Signature Projection Score against the Leukocyte Depletion Signature, bone marrow gene expression data; conditions: maximum over treatments, normalized so highest training treatment = 100, * = p < 0.01, ** = p < 0.001
Source text: Using only the genes in the signature, the amount and direction of gene expression changes in an experimental sample are compared (in terms of log ratio of expression signals) against a reference gene expression change (computed as the average over a characterizing set of treatments in our database). The sum over genes of the product of these two differences is computed, and normalized such that the highest score of any of the characterizing treatments when calculated in this way is 100.
After determination of the MTD and FED for a compound, each compound was dissolved in a vehicle for administration on day 1 of the study (additional daily doses were stored as frozen aliquots from this initial formulation). Each compound was administered to three individual male Sprague-Dawley rats for each of the two doses (MTD and FED) for one of four different times (0.25 day, 1 day, 3 days, and 5 days), yielding a total of up to 24 animals per compound study. Vehicle choice was based on solubility of the compound, effect of food on adsorption, and the vehicles used in the literature reports examined during the FED selection investigations, described above. Generally, the route and vehicle in which the FED was defined are used. When there was a choice of routes and vehicles, oral routes were chosen over injection routes. Many compounds, especially oncolytics, are only administrable intravenously. In such cases, the compound was administered as an intravenous formulation into the tail vein. Orally administered compounds were given dissolved in either water, 1% carboxymethycellulose (CMC) or corn oil. Intravenously and intraperitoneally administered compounds were given in 0.9% saline. Subcutaneously administered compounds were given in corn oil. Animal body weights were determined at 1 day and, where appropriate, at 4 days, before necropsy, and clinical observations were made on a daily basis. Control animals were dosed with vehicle only. Three male animals were used for each dose and time combination used for the compound treatment.
Tissue harvest and handling: After the allocated treatment time, the tissues from the animals were harvested. […] All the tissues collected were divided to provide samples for histopathological analyses, and the remainder of each tissue was then snap-frozen. […] Preparation of enriched mRNA: Punch biopsies were taken from the frozen tissues and were completely homogenized before being processed using the MagNA Pure robot. (Roche Diagnostics Corp., Indianapolis, Ind.) in combination with the MagNA Pure LC RNA Isolation kit II (Roche Diagnostics Corp). The amount of lysis buffer was adjusted to allow 1 ml per 50 mg for liver tissue, or 1 ml per 80 mg for all other tissues.

[2] = system: leukocytes
Experimental: (§1) Control animals were dosed with vehicle only.
The Leukocyte Depletion Signature was derived by analysis of a subset of data from about 2000 in vivo rat drug treatments (using about 300 individual drugs) representing multiple tissues; the method for creation of this dataset is described in the general methods section.

[3] = system: Leukocyte Depletion Signature; test: Signature Projection Score against the Leukocyte Depletion Signature, spleen gene expression data; type: in vivo, rat; conditions: maximum over treatments, normalized so highest training treatment = 100, * = p < 0.01, ** = p < 0.001
Experimental: as §1

[4] = time point 5 days, average of 3 animals, * = p < 0.01

Structure (SMILES)	Max Bone Marrow Score (Signature Projection Score) [1]	Max Fold Serum Leukocyte Depletion ([2]; maximum over treatments)	Max Fold Serum Leukocyte Depletion ([2]; rat, in vivo)	Max Spleen Score (Signature Projection Score) [3]	Fold Decrease in leukocytes [2, 4]	Fold Decrease in leukocytes ([2]; rat, in vivo)
S=C=Nc1cccc2ccccc12 [1-NAPHTHYL ISOTHIOCYANATE]	0	0 fold	–	–	–	–
CN(C)c1nc(N(C)C)nc(N(C)C)n1 [ALTRETAMINE]	3	–	0 fold	5	–	–
Cn1cnc([N+](=O)[O-])c1Sc1ncnc2nc[nH]c12 [AZATHIOPRINE]	11	–	0 fold	19	–	–
CC(C)(c1ccc(O)cc1)c1ccc(O)cc1 [BISPHENOL A]	0	–	0 fold	3	–	–
Oc1c(Cl)cc(Cl)cc1Sc1cc(Cl)cc(Cl)c1O [BITHIONOL]	4	–	0 fold	2	–	–
CS(=O)(=O)OCCCCOS(C)(=O)=O [BUSULFAN]	19	–	0 fold	32*	–	–
ClC(Cl)(Cl)Cl [CARBON TETRACHLORIDE]	2	0 fold	–	–	–	–
N.N.O=C([O-])C1(C(=O)[O-])CCC1.[Pt+2] [CARBOPLATIN]	2	0 fold	–	8	–	–
O=NN(CCCl)C(=O)NCCCl [CARMUSTINE]	39*	4.49 fold	–	31*	4.49* fold	–
O=C(O)CCCc1ccc(N(CCCl)CCCl)cc1 [CHLORAMBUCIL]	9	7.08 fold	–	65*	7.08* fold	–
N.N.[Cl][Pt][Cl] [CISPLATIN]	7	2.01 fold	–	25*	–	–
Nc1ccn([C@@H]2O[C@H](CO)[C@@H](O)[C@@H]2O)c(=O)n1 [CYTARABINE]	2	–	2.85 fold	15	–	–
COc1cccc2c1C(=O)c1c(O)c3c(c(O)c1C2=O)C[C@@](O)(C(C)=O)C[C@@H]3O[C@H]1C[C@H](N)[C@H](O)[C@H](C)O1 [DAUNORUBICIN]	54*	2.77 fold	–	–	–	–
CC/C(=C(/CC)c1ccc(O)cc1)c1ccc(O)cc1 [DIETHYLSTILBESTROL]	2	–	–	30*	–	–
C[C@H]1O[C@@H](n2cc(F)c(=O)[nH]c2=O)[C@H](O)[C@@H]1O [DOXIFLURIDINE]	56*	–	0 fold	–	–	–
COc1cccc2c1C(=O)c1c(O)c3c(c(O)c1C2=O)C[C@@](O)(C(=O)CO)C[C@@H]3O[C@H]1C[C@H](N)[C@H](O)[C@H](C)O1 [DOXORUBICIN]	41*	–	4.70 fold	75**	–	–

Structure (SMILES)	Max Bone Marrow Score (Signature Projection Score) [1]	Max Fold Serum Leukocyte Depletion ([2]; maximum over treatments)	Max Fold Serum Leukocyte Depletion ([2]; rat, in vivo)	Max Spleen Score (Signature Projection Score) [3]	Fold Decrease in leukocytes [2, 4]	Fold Decrease in leukocytes ([2]; rat, in vivo)
CCO [ETHANOL]	2	–	0 fold	–	–	–
COc1cc([C@@H]2c3cc4c(cc3[C@@H](O[C@@H]3O[C@@H]5CO[C@@H](C)O[C@H]5[C@H](O)[C@H]3O)[C@H]3COC(=O)[C@H]23)OCO4)cc(OC)c1O [ETOPOSIDE]	43*	–	2.04 fold	47*	–	–
NC(=O)NO [HYDROXYUREA]	13	–	2.92 fold	15	–	–
O=P1(NCCCl)OCCCN1CCCl (stereo not drawn) [IFOSFAMIDE]	79**	–	–	11	–	–
Cc1oncc1C(=O)Nc1ccc(C(F)(F)F)cc1 [LEFLUNOMIDE]	7	–	2.89 fold	34*	–	–
O=NN(CCCl)C(=O)NC1CCCCC1 [LOMUSTINE]	3	0 fold	–	23*	–	–
CN(Cc1cnc2nc(N)nc(N)c2n1)c1ccc(C(=O)N[C@@H](CCC(=O)O)C(=O)O)cc1 [METHOTREXATE]	6	–	4.35 fold	75**	–	4.35* fold
CO[C@@]12[C@H](COC(N)=O)C3=C(C(=O)C(C)=C(N)C3=O)N1C[C@@H]1N[C@@H]12 [MITOMYCIN C]	7	3.53 fold	–	57*	3.53* fold	–
COc1c(C)c2c(c(O)c1C/C=C(\C)CCC(=O)OCCN1CCOCC1)C(=O)OC2 [MYCOPHENOLATE MOFETIL]	9	–	–	–	–	–
CN(C)C=O [N,N-DIMETHYLFORMAMIDE]	0	–	–	3	–	–
CCN(CC)N=O [N-NITROSODIETHYLAMINE]	7	–	–	0	–	–
O=C1[O][Pt]2([NH][C@@H]3CCCC[C@H]3[NH]2)[O]C1=O [OXALIPLATIN]	14	2.18 fold	–	–	–	–
Nc1nc2nc[nH]c2c(=S)[nH]1 [THIOGUANINE]	24*	–	3.63 fold	100**	–	3.63* fold
CC[C@]1(O)C[C@@H]2CN(CCc3c([nH]c4ccccc34)[C@@](C(=O)OC)(c3cc4c(cc3OC)N(C)[C@H]3[C@@](O)(C(=O)OC)[C@H](OC(C)=O)[C@]5(CC)C=CCN6CC[C@]43[C@@H]65)C2)C1 [VINBLASTINE]	11	–	–	–	–	–
CC[C@]1(O)C[C@H]2CN(CCc3c([nH]c4ccccc34)[C@@](C(=O)OC)(c3cc4c(cc3OC)N(C=O)[C@H]3[C@@](O)(C(=O)OC)[C@H](OC(C)=O)[C@]5(CC)C=CCN6CC[C@]43[C@@H]65)C2)C1 [VINCRISTINE]	5	–	–	–	–	–
CCC1=C[C@@H]2CN(C1)Cc1c([nH]c3ccccc13)[C@@](C(=O)OC)(c1cc3c(cc1OC)N(C)[C@H]1[C@@](O)(C(=O)OC)[C@H](OC(C)=O)[C@]4(CC)C=CCN5CC[C@]31[C@@H]54)C2 [VINORELBINE]	44*	–	1.93 fold	–	–	–
